Assay results from patent publication US20220127297A1, “Novel Antibacterial 3"-Derivatives Of 4,6-Disubstituted 2,5-Dideoxystreptamine Aminoglycoside Antibiotics” (AGILeBiotics B.V., priority 2018, published 2022).
Read-outs that look alike come from different tables or passages of the source.

Tests used:
A. baumanii 48F = experiment: MIC determination at Uppsala University; assay type: cell-based; details: Acinetobacter baumannii; A. boumanii 48F; ANT(2″)Ia, APH(3″)-Ib, APH(3′)-VIa, APH(6)-Id
Excerpt: (§1) 3.4.1 MIC Determination at Uppsala University (Sweden)
(§2) Tested reference compounds. Amikacin disulfate (Cat. No. A1774, Sigma Aldrich), Apramycin sulfate (Cat. No. A2024, Sigma Aldrich) and Gentamicin sulfate (Cat. No. G1914, Sigma Aldrich).
(§3) Bacterial strains/isolates. All assayed laboratory and clinical strains (P. aeruginosa PA01, A. baumanii ATCC 19606, A. baumanii 195N(a), A. baumanii 48F, E. coli C1162, E. coli C1181, M. morgannii S49 and P. stuartii B8-1) were from the IMI ND4BB ENABLE consortium strain collection. ATCC laboratory strains were acquired directly from the American Type Culture Collection. Clinical strains used were previously published (M Juhas, et al. J. Antimicrob. Chemother., 74 (4), 944-952 (2019); D. Hughes et al., Antimicrob. Agents Chemother., 47 (10), 3222-3232 (2003)) and were resistance genotyped within the ENABLE consortium.
(§4) Culture media and equipment. Water (Thermo Scientific, R05819); Mueller-Hinton II broth (BD Ref. 212322); sterile round-bottom 96-well plates (Thermo Scientific, 262162); Sensititre Nephelometer (ThermoFisher Scientific, V3011); 0.5 McFarland Standard (ThermoFisher Scientific, E1041); sterile polyester film (VWR, 391-1251).
(§5) Compound preparation. MIC assay procedure follows the CLSI M07 standard method (Clinical and Laboratory Standards Institute (CLSI); Methods for dilution antimicrobial susceptibility tests for bacteria that grow aerobically; approved standard—eleventh edition, M07-A10, Vol. 38, No. 2, 2018). Test compounds were received as solids and were dissolved in water to a concentration of 10 mg/mL of active compound. […] This solution was serially diluted in 2-fold steps in the first 10 columns of sterile round-bottom 96-well plates, while the final two columns were filled with Mueller-Hinton II broth without added compound for use as positive and negative growth controls.
(§6) Inoculum preparation. Inoculums were prepared by suspending several colonies freshly streaked culture of test strains in 5 mL of sterile 0.9% NaCl. The cell density of the inoculum solution was assessed and adjusted using a Sensititre Nephelometer and a 0.5 McFarland Standard. The inoculum was diluted 1:100 in Mueller-Hinton II broth and 50 μL of this inoculum solution was added to 50 μL of the test compound solutions yielding a concentration range of 64-0.125 μg/mL. The plates were sealed with sterile polyester film and stationarily incubated at 37° C. for 18 hours.
(§7) MIC determination. The MIC value was determined by visual inspection of bacterial growth within 96-well plates. The lowest concentration completely inhibiting growth was reported as the MIC for each strain and compound combination.

P. stuartii B8-1 = experiment: MIC determination at Uppsala University; assay type: cell-based; details: Providencia stuartii, B81, AAC(3)-Ic, ANT (3″)Ia, APH(3′)-IIa, APH(3′)-IIb, APH(3′)-VI, APH(6)-Ic
Excerpt: as §1, §2, §3, §4, §5, §6, §7

[1] = system: Klebsiella pneumoniae ATCC BAA-1705; details: for Avg. Log CFU/g thigh: BID; for decrease in CFU number in thighs in comparison to the vehicle control group: doses of 16 and 64 mg/kg (SC, BID)
Method: 4.2 Murine Neutropenic Thigh Model of Infection (Kiebsiella Pneumoniae ATCC BAA-1705)
All animal-related research is conducted in accordance with 2010/63/EU and National legislation regulating the use of laboratory animals in scientific research and for other purposes (Official Gazette 55/13).
In vivo studies and CFU determination were performed by Fidelta (Zagreb, Croatia) and all mice were obtained from Charles River Laboratories (Italy).
Two compounds, i.e. ABX5006 and ABX5020, and a comparator antibiotic (amikacin sulfate; Cat. No. 01693, Chem-Impex) were tested in a mouse model of thigh infection with Klebsiella pneumoniae ATCC BAA-1705.
Neutropenic thigh model: Pathogen-free male CD-1 mice (6 mice per dosing group) weighing 36±4 g were used. Prior to infection, neutropenia was induced in mice by two cyclophosphamide doses applied intraperitoneally four days (150 mg/kg body weight) and one day prior to infection (100 mg/kg body weight). […] For subcutaneous treatment, pre-weighed test item powder (ABX5006) was dissolved in PBS and the pH was adjusted (to reach a near-neutral pH), to reach a final concentration of 6.4 mg/mL for a dose of 64 mg/kg (group 3) or 1.6 mg/mL for a dose of 16 mg/kg (group 2). For subcutaneous treatment, pre-weighed test item powder (ABX5020) was dissolved in PBS and the pH was adjusted (to reach a near-neutral pH), to reach a final concentration of 6.4 mg/mL for a dose of 64 mg/kg (group 7) or 1.6 mg/mL for a dose of 16 mg/kg (group 6). For subcutaneous treatment, pre-weighed reference compound (amikacin sulfate) was dissolved in PBS and the pH was adjusted (to reach a near-neutral pH), to reach a final concentration of 6.4 mg/mL for a dose of 64 mg/kg (group 5) or 1.6 mg/mL for a dose of 16 mg/kg (group 4). Each mouse was infected with Klebsiella pneumoniae ATCC BAA-1705 (1.18×10^6/thigh), under light ketamine/xylazine anesthesia, by intramuscular administration of 0.10 mL of a suspension containing bacteria into both thighs. Animals were dosed subcutaneously twice with 8 h interval. Treatment was started 1 h following infection either with Vehicle—PBS (group 1) or amikacin sulfate (groups 4-5) or test compounds (groups 2-3 and 6-7) as described above. All Mice were overdosed with ketamine/xylazine 24 hours post infection. Thighs were aseptically removed and separately placed into sterile Precellys test tubes containing 2 mL of sterile PBS. Precellys test tubes were weighed and the weight was recorded prior and post-sampling. Each thigh was homogenized in sterile PBS using Ultraturax, IKA. After homogenizing, a serial dilution of the homogenates was used for CFU determination. A CFU count of each thigh acted as a single result.
Supplies/Chemicals. BBL™ Mueller Hinton Broth (REF 275730, Becton Dickinson); BBL™ Mueller Hinton Agar 2 (REF 211438, Becton Dickinson); PBS (Cat. No. P4417, Sigma); Saline (Serial No. 1422115, HZ™); Xylazine 2% (Alfasan, International B.V.); Narkamon (100 mg/mL ketamine chloride, Bioveta); Cyclophosphamide monohydrate (No. C2236, TCI); Sterile, single use needles (BD MICROLANCE Kanuele, 27 G, REF 300220, Becton Dickinson); 5 mL syringes (BD Plastipak, REF 300013, Becton Dickinson).
Anesthesia. 1 mL of Narkamon, 0.2 mL of Xylazine and 9 mL of saline; Dose volume: 10 mL/kg body weight.
Inoculum preparation for intramuscular infection. The strain was streaked out onto MH agar. On the following day Mueller-Hinton broth was inoculated with several colonies of Klebsiella pneumoniae and incubated at 37° C. in an orbital shaker until log phase of growth was reached (OD600=0.6). Log bacteria was centrifuged and suspended in equal volume of sterile PBS and subsequently diluted to obtain a bacterial suspension of adequate inoculum size.

Which MIC90 (A. baumanii 48F) does the source give for N=C(NC[C@@H]1CCNC1)NC1[C@@H](O)C(OC2[C@@H](F)[C@H](O[C@H]3OC(CN)[C@@H](O)CC3N)C(N)C[C@H]2NC(=O)[C@@H](O)CCN)O[C@H](CO)[C@H]1O (stereo partly drawn) [ABX5039, Tobra-AHB-F-Gua (R) pyrrolidine-3-ylmethyl] here?
The MIC90 was 4 µg/mL.

What about the MIC90 (P. stuartii B8-1) of the same molecule?
The MIC90 was 2 µg/mL.

For N=C(NCCN)NC1C(O)[C@@H](CO)OC(OC2C(F)[C@H](O[C@H]3OC(CN)[C@@H](O)CC3N)C(N)C[C@H]2NC(=O)[C@@H](O)CCN)[C@@H]1O (stereo partly drawn) [ABX5020, Tobra-AHB-F-Gua-2-amino-ethyl], which “Avg. Log CFU/g thigh” value ([1]; dose 16 mg/kg, SC) is on record?
Its value is 6.18 Log CFU/g.

What about the “Avg. Log CFU/g thigh” value ([1]; dose 64 mg/kg, SC) of the same molecule?
Its value is 5.29 Log CFU/g.

And the “decrease in CFU number in thighs in comparison to the vehicle control group” value [1]?
Its value is 2.7-3.6 log 10.

And the “animals euthanized prior to second dose due to weak clinical condition” value ([1]; infected neutropenic mice, SC)?
Its value is “Two animals”.

N=C(NC[C@@H]1CCCN1)NC1[C@@H](O)C(OC2[C@@H](F)[C@H](O[C@H]3OC(CN)[C@@H](O)CC3N)C(N)C[C@H]2NC(=O)[C@@H](O)CCN)O[C@H](CO)[C@H]1O (stereo partly drawn) [ABX5026, Tobra-AHB-F-Gua (S) pyrrolidine-2-yl-methyl] was tested. Which MIC90 (A. baumanii 48F) did it give?
The MIC90 was 4 µg/mL.

And the MIC90 (P. stuartii B8-1)?
Its MIC90 is 2 µg/mL.

For N=C(N)NC1C(O)[C@@H](CO)OC(OC2C(F)[C@H](O[C@H]3OC(CN)[C@@H](O)CC3N)C(N)C[C@H]2NC(=O)[C@@H](O)CCN)[C@@H]1O (stereo partly drawn) [ABX5006, Tobra-AHB-F-Gua], which “Avg. Log CFU/g thigh” value ([1]; dose 16 mg/kg, SC) is on record?
Its value is 6.08 Log CFU/g.

And the “Avg. Log CFU/g thigh” value ([1]; dose 64 mg/kg, SC)?
Its value is 5.69 Log CFU/g.

What about the “decrease in CFU number in thighs in comparison to the vehicle control group” value [1] of the same molecule?
Its value is 2.8-3.2 log 10.

What about the MIC90 (A. baumanii 48F) of the same molecule?
The MIC90 was 4 µg/mL.

And the MIC90 (P. stuartii B8-1)?
Its MIC90 is 4 µg/mL.

What does the source list for NCC[C@H](O)C(=O)N[C@@H]1C[C@H](N)[C@@H](O[C@H]2O[C@H](CN)[C@@H](O)[C@H](O)[C@H]2O)[C@H](O)[C@H]1O[C@H]1O[C@H](CO)[C@@H](O)[C@H](N)[C@H]1O [Amikacin, amikacin, reference compound]?
Avg. Log CFU/g thigh ([1]; dose 16 mg/kg, SC): 8.19 Log CFU/g; Avg. Log CFU/g thigh ([1]; dose 64 mg/kg, SC): 7.24 Log CFU/g; decrease in CFU number in thighs in comparison to the vehicle control group [1]: did not significantly decrease CFU counts in thighs; MIC90 (A. baumanii 48F): > 64 µg/mL; MIC90 (P. stuartii B8-1): > 64 µg/mL
